# Experimental data taken from US4452991A, “Flavan derivatives useful for impairing RNA virus replication in a cell” (priority 1979, dated 1984).
# How the values were obtained:
# virus [1] = test: plaque reduction (PR) test, antiviral activity in monolayer cell culture; type: cell-based; conditions: compound in nutrient agarose overlay, 50% effective dose vs control, read-out: PR (ED50 /μM)
# Experimental: (§1) Activity may be detected by the plaque inhibition (PI) test and measured by the plaque reduction (PR) test. Both assays involve the formation of a monolayer cell culture in a petri dish followed by infection with a virus suspension, and then overlaying the culture with nutrient agarose in the form of a gel. This gel ensures that there is no spread of virus throughout the culture and thus areas of localised cell destruction of plaques are formed.
# Detectable activity is measured with the plaque reduction assay. A range of concentrations of compound of known molarity are incorporated in the nutrient agarose overlay. Plaque suppression is proportional to compound concentration. Plaque numbers are expressed as percentages of a control, and a dose responsecurve may be drawn. From this curve 50% of the effective dose (ED50) may be estimated.
# virus [2] = test: Intranasal administration simulation in vitro (compound on lid of petri dish, inhibition of plaque formation); type: cell-based; conditions: 1 μg compound spread on inside of petri dish lid, agarose-covered cells
# Excerpt: as §1
# In the plaque inhibition test a filter paper disc which holds 0.01 ml when impregnated with a solution of compound is placed on top of the agarose gel. The compound may then diffuse throughout the gel so that its greatest concentration will be around the disc and its lowest concentration towards the periphery of the petri dish. The efficacy of the compound may be detected by observing the zone inhibition of plaque formation.
# Petri dishes were prepared, as for the plaque inhibition test and the confluent sheet of cells was covered with a layer of agarose gel. The compound, trans-3-methylflavan (1 μg) was dissolved in ethanol, and applied to the lids of the petri dishes. When the ethanol had evaporated, leaving the compound spread over the inside of the lids, these were replaced on the petri dishes.
Compound,EC50 (virus [1]),inhibition of plaque formation (virus [2])
"C[C@@H]1Cc2ccccc2O[C@H]1c1ccccc1 (relative stereo) [Example 1, trans-3-methylflavan]",0.125 µM,total inhibition of plaque formation
"C[C@@H]1Cc2cc(Cl)ccc2O[C@H]1c1ccc(Cl)cc1 (relative stereo) [Example 2, trans-4',6-dichloro-3-methylflavan]",0.135 µM,–
"C[C@H]1Cc2ccccc2O[C@H]1c1ccccc1 (relative stereo) [Example 3, cis-3-methylflavan]",1.1 µM,–
"c1ccc2c(c1)C[C@H]1Cc3ccccc3[C@H]1O2 (relative stereo) [Example 5, cis-4b,10,10a,11-tetrahydrobenz(b)indeno(2,1-e)pyran]",0.38 µM,–
"c1ccc2c(c1)C[C@@H]1CCc3ccccc3[C@@H]1O2 (relative stereo) [Example 6, cis-5,6,6a,12a-tetrahydro-7H-benzo(c)xanthene]",0.03 µM,–
"Clc1cc(Cl)c2c(c1)C[C@@H]1CCc3ccccc3[C@@H]1O2 (relative stereo) [Example 7, cis-9,11-dichloro-5,6,6a,12a-tetrahydro-7H-benzo(c)xanthene]",6 µM,–
"Clc1cccc2c1O[C@@H]1c3ccccc3C[C@@H]1C2 (relative stereo) [Example 8, cis-6-chloro-4b,10,10a,11-tetrahydrobenz(b)indeno(2,1-e)pyran]",1.5 µM,–
"Clc1cc(Cl)c2c(c1)C[C@H]1Cc3ccccc3[C@H]1O2 (relative stereo) [Example 9, Cis-6,8-dichloro-4b,10,10a,11-tetrahydrobenz(b)indeno(2,1-e)pyran]",0.57 µM,–
